Data reported in ChEMBL document CHEMBL3046496, “Hydrolysis and Phytotoxic Activity ofN-Aryl-3,4,5,6-tetrahydroisophthalimides” (Biosci Biotechnol Biochem, 1993).

How the values were obtained:
Assay type in all cases: ADME, organism-based
Scenedesmus acutus = assay: Phytotoxic activity against Scenedesmus acutus assessed as protoporphyrin-IX accumulation at 1 uM incubated for 1 hr; settings: in vivo
[1] = Drug hydrolysis in culture medium of Echinochloa esculenta assessed as compound degradation measured at zero period in culture experiment by HPLC method; settings: read-out: Drug degradation
[2] = Half life in culture medium of Echinochloa esculenta after 7 days by HPLC method

degraded [1] [%] | half-life [2] [h] | Structure (SMILES) | Activity (Scenedesmus acutus) [nmol/mL]
5 | 57.6 | O=C1O/C(=N\c2ccc(OCc3ccc(Cl)cc3)cc2)C2=C1CCCC2 | –
68 | – | O=C1O/C(=N\c2ccc(Cl)cc2F)C2=C1CCCC2 | –
33 | 7.2 | Cc1cc(Cl)ccc1/N=C1\OC(=O)C2=C1CCCC2 | –

Second part, the compound before the results:

Structure (SMILES) | degraded [1] [%] | half-life [2] [h] | Activity (Scenedesmus acutus) [nmol/mL]
O=C(O)C1=C(C(=O)Nc2ccc(Cl)cc2)CCCC1 | – | – | 17.6
C#CCOc1cc(/N=C2\OC(=O)C3=C2CCCC3)c(F)cc1Cl | 32 | 14.4 | –
O=C1O/C(=N\c2ccc(Cl)cc2)C2=C1CCCC2 | 10 | 19.2 | 54.7
O=C1C2=C(CCCC2)C(=O)N1c1ccc(Cl)cc1 [CHLOROPHTHALIUM] | – | – | 68.2
